Values after ≈ are worked out from the molar mass of the structure shown. Read-outs that look alike come from different tables or passages of the source.
Key:
Assay type in all cases: cell-based
[1] = tested on: Bacillus cereus (ATCC 14579); experiment: Broth microdilution MIC, B. cereus; conditions: median/mode, read-out: MIC
[2] = tested on: Enterococcus faecalis (ATCC 29212); experiment: Broth microdilution MIC, E. faecalis
[3] = tested on: Escherichia coli (ATCC 25922); experiment: Broth microdilution MIC, E. coli
[4] = tested on: E. coli 0175:H7 (NCTC 12900); experiment: microbe, parasite or virus in culture; conditions: Escherichia coli, NCTC12900
[5] = tested on: Listeria monocytogenes (ATCC 7644); experiment: Broth microdilution MIC, L. monocytogenes
[6] = tested on: Shigella flexneri (ATCC 12022); experiment: microbe, parasite or virus in culture; conditions: ATCC12022
[7] = tested on: Salmonella enterica ssp. enterica serovar Enteritidis (ATCC 13076); experiment: Broth microdilution MIC, Salmonella Enteritidis
[8] = tested on: S. enterica ssp. enterica serovar Typhimurium (ATCC 14028); experiment: Broth microdilution MIC, Salmonella Typhimurium
[9] = tested on: Vibrio parahaemolyticus (ATCC 17802); experiment: Broth microdilution MIC, V. parahaemolyticus; conditions: ATCC17802, growth inhibited by ≥80%, read-out: MIC
[10] = tested on: diarrheagenic bacteria (12 strains); experiment: organism not typed
[11] = tested on: Bacteroides fragilis (ATCC 25285); experiment: Broth microdilution MIC, B. fragilis
[12] = tested on: Bifidobacterium adolescentis (DSMZ 20087); experiment: Broth microdilution MIC, B. adolescentis
[13] = tested on: Bifidobacterium animalis spp. lactis (DSMZ 10140); experiment: Broth microdilution MIC, B. animalis spp. lactis; conditions: DSMZ10140
[14] = tested on: Bifidobacterium bifidum (ATCC 29521); experiment: Broth microdilution MIC, B. bifidum
[15] = tested on: Bifidobacterium breve (ATCC 15700); experiment: Broth microdilution MIC, B. breve; conditions: ATCC15700, growth inhibited by ≥80%, read-out: MIC
[16] = tested on: Bifidobacterium longum ssp. longum (DSMZ 20219); experiment: Broth microdilution MIC, B. longum ssp. longum; conditions: DSMZ20219; Bifidobacterium longum ssp. longum; growth inhibited by ≥80%; read-out: MIC
[17] = tested on: Lactobacillus casei (DSMZ 20011); experiment: Broth microdilution MIC, L. casei; conditions: Lacticaseibacillus casei, DSMZ20011, Lactobacillus casei, read-out: MIC
[18] = tested on: Lactobacillus reuteri (CCM 3625); experiment: Broth microdilution MIC, L. reuteri; conditions: Limosilactobacillus reuteri, CCM3625
[19] = tested on: Lactobacillus rhamnosus (CCM 7091); experiment: Broth microdilution MIC, L. rhamnosus; conditions: Lacticaseibacillus rhamnosus, CCM7091
[20] = tested on: probiotic bacteria (9 strains); experiment: Broth microdilution MIC, probiotic bacteria as a group (mean or range over strains); conditions: read-out: x¯ -PB ± SD: mean MIC for probiotic bacteria
[21] = tested on: HT29 (ATCC HTB 38) intestinal cancer cells; experiment: MTT cytotoxicity assay, HT29; conditions: Homo sapiens, HT-29, HT29, MTT, 72 h; for IC50: read-out: IC50 ± SD; for IC80: read-out: IC80 ± SD (80% inhibitory concentration of proliferation)
[22] = tested on: FHs 74 Int (ATCC CCL 241) intestinal normal cells; experiment: MTT cytotoxicity assay, FHs 74 Int; conditions: 72 h, FHs 74 Int (intestinal normal cells), MTT; for IC50 / IC80: FHs74Int; for IC50: read-out: IC50 ± SD; for IC80: read-out: IC80 ± SD (80% inhibitory concentration of proliferation)
[23] = tested on: Clostridium perfringens (DSMZ 11778); experiment: microbe, parasite or virus in culture; conditions: DSMZ11778
[24] = tested on: Yersinia enterocolitica (ATCC 9610); experiment: Broth microdilution MIC, Y. enterocolitica; conditions: read-out: MIC
[25] = tested on: Caco-2 (ATCC HTB 37) intestinal cancer cells; experiment: MTT cytotoxicity assay, Caco-2; conditions: Homo sapiens, Caco-2, MTT, 72 h; for IC50: read-out: IC50 ± SD; for IC80: read-out: IC80 ± SD (80% inhibitory concentration of proliferation)
[26] = tested on: intestinal cancer cells (HT29 and Caco-2); experiment: MTT cytotoxicity assay, mean for intestinal cancer cells; conditions: for IC50: mean of HT29 and Caco-2, >512 replaced with 1024, read-out: x¯ -CC ± SD: mean IC50 for intestinal cancer cells; for IC80: read-out: x¯ -CC ± SD: mean IC80 for intestinal cancer cells
[27] = tested on: Clostridium difficile (DSMZ 12056); experiment: microbe, parasite or virus in culture; conditions: Clostridioides difficile, DSMZ12056
[28] = ATCC14579, growth inhibited by ≥80%
[29] = ATCC29212, growth inhibited by ≥80%, read-out: MIC
[30] = ATCC25922, growth inhibited by ≥80%, read-out: MIC
[31] = ATCC7644, growth inhibited by ≥80%, read-out: MIC
[32] = Salmonella Enteritidis, growth inhibited by ≥80%, read-out: MIC
[33] = Salmonella Typhimurium, growth inhibited by ≥80%, read-out: MIC
[34] = mean of 12 strains, >512 replaced with 1024, read-out: x¯ -DB ± SD: mean MIC for diarrheagenic bacteria
[35] = ATCC25285, growth inhibited by ≥80%, read-out: MIC
[36] = DSMZ20087, growth inhibited by ≥80%, read-out: MIC
[37] = Bifidobacterium animalis spp. lactis, growth inhibited by ≥80%, read-out: MIC
[38] = ATCC29521, growth inhibited by ≥80%, read-out: MIC
[39] = Lactobacillus reuteri, growth inhibited by ≥80%, read-out: MIC
[40] = Lactobacillus rhamnosus, growth inhibited by ≥80%, read-out: MIC
[41] = mean of 9 strains, >512 replaced with 1024
[42] = ATCC9610, growth inhibited by ≥80%

Structure (SMILES)	MIC [2, 29] [µg/mL]	MIC [3, 30] [µg/mL]	MIC [4] [µg/mL]	MIC [5, 31] [µg/mL]	MIC [6] [µg/mL]	MIC [9] [µg/mL]	MIC [10, 34] [µg/mL]	MIC [11, 35] [µg/mL]	MIC [12, 36] [µg/mL]	MIC [13, 37] [µg/mL]	MIC [14, 38] [µg/mL]	MIC [15] [µg/mL]	MIC [16] [µg/mL]	MIC ([17]; growth inhibited by ≥80%) [µg/mL]	MIC [18, 39] [µg/mL]	MIC [19, 40] [µg/mL]	MIC [20, 41] [µg/mL]	IC50 [21] [µg/mL]	IC80 [21] [µg/mL]	IC50 [22] [µg/mL]	other results
O=C(O)c1cn(C2CC2)c2cc(N3CCNCC3)c(F)cc2c1=O [CP, ciprofloxacin]	2 (≈ 6.04 µM)	0.062 (≈ 0.187 µM)	0.016 (≈ 0.0483 µM)	4 (≈ 12.1 µM)	0.016 (≈ 0.0483 µM)	0.062 (≈ 0.187 µM)	2 ± 4 (≈ 6.04 µM)	8 (≈ 24.1 µM)	8 (≈ 24.1 µM)	32 (≈ 96.6 µM)	16 (≈ 48.3 µM)	64 (≈ 193 µM)	16 (≈ 48.3 µM)	32 (≈ 96.6 µM)	32 (≈ 96.6 µM)	4 (≈ 12.1 µM)	23.6 ± 18 (≈ 71.2 µM)	130 ± 13 (≈ 393 µM)	> 512	51.8 ± 27 (≈ 156 µM)	MIC [1, 28]: 1 µg/mL (≈ 3.02 µM); MIC [7, 32]: 0.031 µg/mL (≈ 0.0936 µM); MIC [8, 33]: 0.031 µg/mL (≈ 0.0936 µM); MIC ([10]; all gram-negative diarrheagenic bacteria, range over strains, read-out: MICs): 0.016 to 0.125 µg/mL (≈ 0.0483 to 0.377 µM); MIC ([10]; gram-positive pathogens, range over strains, read-out: MICs): 1 to 16 µg/mL (≈ 3.02 to 48.3 µM); IC80 [22]: 130 ± 24 µg/mL (≈ 391 µM)
CN(C)[C@@H]1C(O)=C(C(N)=O)C(=O)[C@@]2(O)C(O)=C3C(=O)c4c(O)cccc4[C@@](C)(O)[C@H]3C[C@@H]12 [TC, tetracycline]	4 (≈ 9 µM)	1 (≈ 2.25 µM)	4 (≈ 9 µM)	2 (≈ 4.5 µM)	2 (≈ 4.5 µM)	1 (≈ 2.25 µM)	–	0.5 (≈ 1.13 µM)	64 (≈ 144 µM)	32 (≈ 72 µM)	16 (≈ 36 µM)	16 (≈ 36 µM)	2 (≈ 4.5 µM)	8 (≈ 18 µM)	32 (≈ 72 µM)	8 (≈ 18 µM)	19.8 ± 19 (≈ 44.6 µM)	393 ± 20 (≈ 884 µM)	> 512	14.7 ± 2.3 (≈ 33.1 µM)	MIC [1, 28]: 0.5 µg/mL (≈ 1.13 µM); MIC [23]: 32 µg/mL (≈ 72 µM); MIC [7, 32]: 4 µg/mL (≈ 9 µM); MIC [8, 33]: 4 µg/mL (≈ 9 µM); MIC [24, 42]: 2 µg/mL (≈ 4.5 µM); MIC ([10]; read-out: MICs): 1 to 4 µg/mL (≈ 2.25 to 9 µM); MIC ([10]; read-out: x¯ -DB ± SD: mean MIC for diarrheagenic bacteria): 4.8 ± 8 µg/mL (≈ 10.8 µM); IC50 [25]: 70.4 ± 15 µg/mL (≈ 158 µM); IC80 [25]: > 512 µg/mL; IC50 [26]: 232 ± 161 µg/mL (≈ 521 µM); IC80 [26]: > 512 µg/mL; IC80 [22]: 108 ± 5 µg/mL (≈ 243 µM)
O=C(OC[C@H]1O[C@@H](OC(=O)c2cc(O)c(O)c(OC(=O)c3cc(O)c(O)c(O)c3)c2)[C@H](OC(=O)c2cc(O)c(O)c(OC(=O)c3cc(O)c(O)c(O)c3)c2)[C@@H](OC(=O)c2cc(O)c(O)c(OC(=O)c3cc(O)c(O)c(O)c3)c2)[C@@H]1OC(=O)c1cc(O)c(O)c(OC(=O)c2cc(O)c(O)c(O)c2)c1)c1cc(O)c(O)c(OC(=O)c2cc(O)c(O)c(O)c2)c1 [TA, tannic acid]	–	–	512 (≈ 301 µM)	–	> 512	128 (≈ 75.2 µM)	779 ± 307 (≈ 458 µM)	–	–	–	–	256 (≈ 150 µM)	128 (≈ 75.2 µM)	–	–	–	–	–	–	–	MIC ([1]; ATCC14579, […]): 512 µg/mL (≈ 301 µM); MIC [27]: > 512 µg/mL; MIC [23]: 512 µg/mL (≈ 301 µM); MIC ([2]; ATCC29212): > 512 µg/mL; MIC ([3]; ATCC25922): > 512 µg/mL; MIC ([5]; ATCC7644): > 512 µg/mL; MIC [7]: > 512 µg/mL; MIC [8]: > 512 µg/mL; MIC ([24]; ATCC9610, […]): 512 µg/mL (≈ 301 µM); MIC ([11]; ATCC25285): > 512 µg/mL; MIC ([12]; DSMZ20087): > 512 µg/mL; MIC ([13]; Bifidobacterium animalis): > 512 µg/mL; MIC ([14]; ATCC29521): > 512 µg/mL; MIC ([17]; […]): 512 µg/mL (≈ 301 µM); MIC [18]: 512 µg/mL (≈ 301 µM); MIC [19]: > 512 µg/mL; MIC [20]: 725 ± 352 µg/mL (≈ 426 µM)
Cc1ncc([N+](=O)[O-])n1CCO [MA, metronidazole]	> 512	0.062 (≈ 0.362 µM)	> 512	512 (≈ 2990 µM)	> 512	> 512	651 ± 459 (≈ 3810 µM)	0.5 (≈ 2.92 µM)	64 (≈ 374 µM)	32 (≈ 187 µM)	> 512	32 (≈ 187 µM)	8 (≈ 46.7 µM)	> 512	256 (≈ 1500 µM)	> 512	385 ± 458 (≈ 2250 µM)	> 512	> 512	> 512	MIC ([1]; ATCC14579, […]): 128 µg/mL (≈ 748 µM); MIC ([27]; Clostridium difficile, […], read-out: MIC): 0.5 µg/mL (≈ 2.92 µM); MIC [23]: 8 µg/mL (≈ 46.7 µM); MIC [24, 42]: > 512 µg/mL; MIC ([10]; both clostridial species tested, read-out: MICs): 0.5 to 8 µg/mL (≈ 2.92 to 46.7 µM); IC50 [25]: > 512 µg/mL; IC80 [25]: > 512 µg/mL; IC50 [26]: > 512 µg/mL; IC80 [26]: > 512 µg/mL; IC50 ± SD [22]: - (Not active (MIC/IC50/80 > 512 μg/mL, the value 1024 μg/mL was used for average calculation)); IC80 ± SD (80% inhibitory concentration of proliferation) [22]: - (Not active (MIC/IC50/80 > 512 μg/mL, the value 1024 μg/mL was used for average calculation)); IC80 [22]: > 512 µg/mL

From PMC7558399, “In Vitro Selective Growth-Inhibitory Activities of Phytochemicals, Synthetic Phytochemical Analogs, and Antibiotics against Diarrheagenic/Probiotic Bacteria and Cancer/Normal Intestinal Cells” (Pharmaceuticals, 2020)
